Values of other authors as cited in patent US11395812B2, “Docetaxel albumin nanoparticle pharmaceutical composition, preparation method therefor and use thereof” (SICHUAN KELUN PHARMACEUTICAL RESEARCH INSTITUTE CO. LTD., priority 2015, dated 2022).

Molecular target: T1, recombinant human cytochrome P4501B1 (hCYP1B1) (Homo sapiens, UniProt Q16678)
T1 sequence (Q16678 1-543): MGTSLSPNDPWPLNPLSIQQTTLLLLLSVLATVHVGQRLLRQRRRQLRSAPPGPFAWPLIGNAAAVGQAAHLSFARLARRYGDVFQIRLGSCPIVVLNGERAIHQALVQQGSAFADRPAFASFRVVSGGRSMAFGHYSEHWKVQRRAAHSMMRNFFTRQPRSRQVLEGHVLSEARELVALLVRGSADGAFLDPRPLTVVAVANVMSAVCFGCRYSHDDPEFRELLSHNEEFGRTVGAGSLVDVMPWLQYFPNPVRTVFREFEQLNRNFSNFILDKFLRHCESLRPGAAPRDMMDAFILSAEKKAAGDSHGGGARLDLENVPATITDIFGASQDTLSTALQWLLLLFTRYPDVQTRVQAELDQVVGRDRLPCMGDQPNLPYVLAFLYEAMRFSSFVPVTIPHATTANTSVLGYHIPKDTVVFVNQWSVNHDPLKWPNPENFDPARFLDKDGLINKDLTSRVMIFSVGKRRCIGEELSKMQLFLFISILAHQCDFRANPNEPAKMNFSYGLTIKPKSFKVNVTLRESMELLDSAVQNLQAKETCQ
Conditions: in vitro test

CC(=O)O[C@@]12CO[C@@H]1C[C@@H](O)[C@@]1(C)C(=O)[C@H](O)C3=C(C)[C@@H](OC(=O)[C@H](O)[C@@H](NC(=O)OC(C)(C)C)c4ccccc4)C[C@@](O)([C@@H](OC(=O)c4ccccc4)[C@H]21)C3(C)C [7-epi-docetaxel]
increase of the activity of hCYP1B1: more than 7 times
